Tests used:
[1] = target: T1, human monoamine oxidase B (hMAO-B) (Homo sapiens, UniProt P27338); assay: MAO-Glo luminescent assay with recombinant enzyme; Michaelis-Menten/Lineweaver-Burk kinetics (IC50 […]); type: biochemical
T1 construct: gene MAOB
T1 sequence (P27338 2-520): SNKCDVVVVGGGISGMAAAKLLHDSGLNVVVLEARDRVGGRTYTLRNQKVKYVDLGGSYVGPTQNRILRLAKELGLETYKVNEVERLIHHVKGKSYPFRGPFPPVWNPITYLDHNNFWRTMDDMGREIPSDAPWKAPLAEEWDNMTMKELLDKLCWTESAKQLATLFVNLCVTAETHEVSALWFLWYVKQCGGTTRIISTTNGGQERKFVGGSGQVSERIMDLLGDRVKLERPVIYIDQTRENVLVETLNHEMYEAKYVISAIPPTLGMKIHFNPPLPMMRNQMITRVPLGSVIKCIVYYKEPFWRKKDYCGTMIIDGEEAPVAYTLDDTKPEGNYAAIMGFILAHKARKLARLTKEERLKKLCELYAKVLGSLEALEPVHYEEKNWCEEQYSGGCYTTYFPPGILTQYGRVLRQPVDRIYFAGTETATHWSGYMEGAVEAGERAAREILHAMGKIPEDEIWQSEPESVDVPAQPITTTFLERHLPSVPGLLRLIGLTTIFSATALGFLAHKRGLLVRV

[2] = target: T2, human monoamine oxidase A (hMAO-A) (Homo sapiens, UniProt P21397); assay: as above; type: biochemical
T2 construct: gene MAOA
T2 sequence (P21397 1-527): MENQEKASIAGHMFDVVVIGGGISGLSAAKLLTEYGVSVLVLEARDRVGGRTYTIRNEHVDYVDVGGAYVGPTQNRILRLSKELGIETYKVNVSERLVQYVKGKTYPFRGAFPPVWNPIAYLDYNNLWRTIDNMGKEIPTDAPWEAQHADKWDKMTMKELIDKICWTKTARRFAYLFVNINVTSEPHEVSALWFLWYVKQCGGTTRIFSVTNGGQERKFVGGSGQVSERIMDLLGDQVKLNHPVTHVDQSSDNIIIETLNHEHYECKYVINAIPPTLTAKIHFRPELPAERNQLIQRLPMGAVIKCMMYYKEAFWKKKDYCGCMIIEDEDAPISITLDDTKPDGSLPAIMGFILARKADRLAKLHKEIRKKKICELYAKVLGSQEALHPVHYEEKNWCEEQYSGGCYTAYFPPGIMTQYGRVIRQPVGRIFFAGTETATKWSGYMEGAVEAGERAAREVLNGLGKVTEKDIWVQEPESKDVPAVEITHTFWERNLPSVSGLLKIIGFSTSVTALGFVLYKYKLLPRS

Ki [1]: 9.22 µM
Ki [2]: 95.3 µM
Structure (SMILES): COc1cc2c(cc1CC=C(C)C)C(=O)C[C@@H](c1ccc(O)cc1)O2 [BNN, 4′-hydroxy-7-methoxy-6-(3-methyl-2-butenyl) flavanone]
